Measurements published in publication PMC4325551, “Inhibition of Rat 5α-Reductase Activity and Testosterone-Induced Sebum Synthesis in Hamster Sebocytes by an Extract of Quercus acutissima Cortex” (Evidence-based Complementary and Alternative Medicine : eCAM, 2015).

How the values were obtained:
[1] = target: T1, rat liver microsomal 5α-reductase (Rattus norvegicus, UniProt P24008); assay: 5α-reductase assay using rat liver microsomes (testosterone metabolism, HPLC and TLC); type: biochemical; settings: for Inhibitory activity on 5α-reductase (% of control): mean ± SEM, N = 3
T1 construct: The reaction was started with the addition of liver microsomes (20 μg protein); from tissue; host or cells: liver microsomes of male Sprague–Dawley rats
T1 sequence (P24008 1-259): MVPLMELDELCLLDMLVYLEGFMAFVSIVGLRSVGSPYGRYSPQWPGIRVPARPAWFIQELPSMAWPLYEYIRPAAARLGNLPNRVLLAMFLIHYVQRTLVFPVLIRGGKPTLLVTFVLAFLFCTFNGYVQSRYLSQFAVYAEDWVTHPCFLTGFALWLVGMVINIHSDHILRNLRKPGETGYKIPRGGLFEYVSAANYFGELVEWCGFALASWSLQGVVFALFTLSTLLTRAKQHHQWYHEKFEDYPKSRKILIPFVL
Experimental: Rat liver microsomes were prepared by the method of Lee et al.. Male Sprague–Dawley rats (body weight, 300 to 320 g; Clea Japan, Tokyo, Japan) were fasted overnight to decrease the concentration of liver glycogen and then sacrificed. The liver was excised and washed in ice-cold homogenizing buffer containing 0.32 mol/L sucrose, 1 mmol/L dithiothreitol (Wako Pure Chemical Industries), and 20 mmol/L potassium phosphate, pH 6.5. The following procedures were all carried out at 4°C. The tissue was minced with a pair of scissors and then homogenized in homogenizing buffer using a Potter-Elvehjem grinder. The homogenate was then centrifuged at 10 000 g for 10 min. The resulting pellet was washed with two pellet volumes of homogenizing buffer and centrifuged again. The supernatants from the two centrifugations were combined and further centrifuged at 105 000 g for 1 h. The resulting pellet (microsomes) was suspended in homogenizing buffer and centrifuged again. The microsomes were resuspended in homogenizing buffer. The microsome suspension was divided into small aliquots and stored at −80°C. The microsomes were diluted with 40 mmol/L potassium phosphate, pH 6.5, immediately before use. Unlike human liver, rat liver microsomes have the 5α-R1 but not the 5α-R2 isoform.
Briefly, the reaction solution was preincubated with or without a test sample in 1 mmol/L dithiothreitol, 40 mmol/L potassium phosphate, pH 6.5, 100 μmol/L NADPH (Oriental Yeast, Tokyo, Japan), and 3.5 μmol/L testosterone (Wako Pure Chemical Industries) in a final volume of 0.5 mL for 20 min at room temperature. The reaction was started with the addition of liver microsomes (20 μg protein). After incubation at 37°C for 30 min, the reaction solution was extracted with 2 mL ethyl acetate. The ethyl acetate phase (upper phase) was transferred to a tube and evaporated using a centrifugal concentrator (Tomy Seiko, Tokyo, Japan). Testosterone and the metabolites were measured by two chromatography methods, HPLC (Shimadzu, Kyoto, Japan) and TLC.
The residue was dissolved in acetonitrile and analyzed using the HPLC system. The reverse-phase HPLC analysis was performed on a C18 column (3.0 × 150 mm, GL Science, Japan) at a column oven temperature of 50°C and UV detection of 240 nm. The isocratic mobile phase of acetonitrile/water (50 : 50, v/v) was flowed at 0.4 mL/min through the column.
To detect the steroids by TLC, the residue containing steroids was taken up in ethanol and chromatographed on a TLC plate (Silica gel 60 F254, Merck, Darmstadt, Germany), using ethyl acetate-hexane (1 : 1, v/v) as the developing solvent system at room temperature. Testosterone, (Tokyo Chemical Industry Co., Tokyo, Japan) and 5α-androstane-3α,17β-diol (Sigma-Aldrich) were applied to TLC as androgen standards. The plate was exposed to 10% sulfuric acid using an atomizer and then heated on a hot plate. The fluorescent signals were visualized by irradiation of UV light at 302 nm using a ChemiDoc XRS Plus (BIO-RAD, Hercules, CA).

[2] = system: human intestinal epithelial Caco-2 cells; parameters: method as in PMID 16890919, PMID 16580640; settings: transport inhibited by phlorizin (SGLT-1 inhibitor); ref [34], [35]; cited from earlier work
[3] = system: primary hamster sebocytes (Ha-SE); assay: testosterone-induced sebum synthesis (lipogenesis) assay in hamster sebocytes; type: cell-based; settings: 10 and 30 μmol/L; 10 μmol/L testosterone; 8 days
Experimental: (§1) Primary hamster sebocytes (Ha-SE) were purchased from Kurabo Industries (Osaka, Japan) and maintained in a culture medium containing […] epidermal growth factor (EGF), 2% (v/v) human serum (HS), 8% (v/v) heat-inactivated fetal bovine serum (FBS) (Kurabo Industries), and a cocktail of penicillin G and streptomycin (Sigma-Aldrich). All assays using Ha-SE cells were performed between the 5th and 6th passage. For the study dealing with sebum synthesis, a sebum detecting kit (Kurabo industries) was used. […] The amount of sebum synthesized was evaluated by measuring lipid production and cell growth according to the manufacturer's instructions. That is, the lipid in sebaceous cells was stained with Oil Red O, extracted in 100% isopropanol, and quantified by a spectrometer at 520 nm. The cell growth was measured using XTT reagent (Biological Industries, Beit Haemek, Israel). The lipogenesis was calculated following the formula as relative sebum synthesis per cell number: lipogenesis = A/B, where A = OD 520 nm of 200 μL extract solution of 300 μL 100% isopropanol for extract of Oil red O dye and B = OD 465/630 nm of 200 μL of 450 μL culture fluids containing XTT reagent following incubation for 30 min. […]

[4] = system: primary hamster sebocytes (Ha-SE); assay: insulin-induced sebum synthesis (lipogenesis) assay in hamster sebocytes; type: cell-based; settings: 10 and 30 μmol/L; 10 μg/mL insulin; 8 days
Experimental: as §1

[5] = system: primary hamster sebocytes (Ha-SE); assay: cell cytotoxicity (XTT) in undifferentiated hamster sebocytes; settings: 24 h with BK (10, 30 μg/mL) or pentagalloyl glucose (10, 30 μmol/L) in the presence of EGF
Experimental: Four Figures and Two Tables
Hamster-derived sebaceous gland cells (Ha-SE) were precultured until confluent in the presence of 10 ng/mL epidermal growth factor (EGF), and further cultured with 10, 30 […]
vehicle in the presence of EGF. Twenty four hours later, cell cytotoxicity was measured […]
Fig. S2. Bioconversion of exogenous dihydrotestosterone to 5α-androstane-3,17-diol by rat liver microsomal enzymes […]
min in the presence or absence of rat liver microsomes (40 μg/mL) and the co-factors.
The metabolites were extracted with ethyl acetate after incubation, and analyzed by TLC. All androgen standards were applied at 0.1 μg/μL/spot. T.: testosterone, DHT: dihydrotestosterone, A.diol: 5α-androstane-3α,17β-diol

- inhibition of 5α-reductase activity ([1]; at 10 and 100 μmol/L): more than 50%
- Inhibitory activity on 5α-reductase (% of control) ([1]; test sample 0.1 μmol/L, testosterone 3.5 μmol/L, 30 min, rat liver microsomes 40 μg/mL, HPLC): 5.4 ± 1.3 % of control
- Inhibitory activity on 5α-reductase (% of control) ([1]; test sample 1 μmol/L, testosterone 3.5 μmol/L, 30 min, rat liver microsomes 40 μg/mL, HPLC): 36.1 ± 6.5 % of control
- Inhibitory activity on 5α-reductase (% of control) ([1]; test sample 10 μmol/L, testosterone 3.5 μmol/L, 30 min, rat liver microsomes 40 μg/mL, HPLC): 83.5 ± 1.3 % of control
- Inhibitory activity on 5α-reductase (% of control) ([1]; test sample 100 μmol/L, testosterone 3.5 μmol/L, 30 min, rat liver microsomes 40 μg/mL, HPLC): 107.9 ± 2.2 % of control
- IC50 ([1]; testosterone 3.5 μmol/L, 30 min, rat liver microsomes 40 μg/mL, HPLC): 2500 nM
Structure (SMILES): O=C(OC[C@H]1O[C@@H](OC(=O)c2cc(O)c(O)c(O)c2)[C@H](OC(=O)c2cc(O)c(O)c(O)c2)[C@@H](OC(=O)c2cc(O)c(O)c(O)c2)[C@@H]1OC(=O)c1cc(O)c(O)c(O)c1)c1cc(O)c(O)c(O)c1 [Pentagalloyl glucose, 1,2,3,4,6-penta-O-galloyl glucose]
- transport across Caco-2 monolayer [2]: crosses a monolayer
- testosterone-induced lipogenesis [3]: significantly downregulated
- insulin-induced lipogenesis [4]: significantly downregulated
- cell metabolic activities [5]: not changed compared with the vehicle control
